We go through one compound from PMC10451034, “Highly Efficient Photosensitizers with Molecular Vibrational Torsion for Cancer Photodynamic Therapy” (ACS Central Science, 2023).

Data set [1] is described as follows: Singlet oxygen yield in PBS with singlet oxygen sensor green (SOSG). Type of data set: physicochemical. Particulars: 660 nm irradiation. As to the method: In order to further investigate the PDT ability of QTCy7-R on cancer cells, the UV–vis absorption and emission spectra and ^1O2 production capacity of QTCy7-R were tested in phosphate-buffered solution (PBS) to better mimic the cellular environment. […] Meanwhile, the fluorescence quenching of QTCy7-Ph and QTCy7-CHO also confirmed their aggregation in aqueous solution compared to the intense fluorescence emission of QTCy7-Ac. Furthermore, singlet oxygen sensor green (SOSG) was selected to investigate the ^1O2 quantum yield in PBS.
(§1) QTCy7-Ph, (e) QTCy7-Ac, (f) QTCy7-CHO, (g) TCy7 and (h) MB under 660 nm irradiation (4 mW/cm2) in PBS. (i) The relative singlet oxygen yield of different compounds in PBS.
(§2) Figure S19. (a) The cellular uptake of QTCy7-R in HepG2 cells (QTCy7-Me/QTCy7-Ph: λex = 640 […]
(§3) μm). (b) The fluorescence intensity of QTCy7-R in cell at different time. (c) The LDH release rate of cells under different treatment conditions.
(§4) Figure S20. The enlarged images of (a) QTCy7-Ac and (b) QTCy7-CHO caused cell membrane destruction at 0 min and 4 min. Yellow arrows indicate the formation of distinct bubble-like structures on cell membrane. (λex = 640 nm, λem = 650-750 nm, scale bars: 20 μm). […]

The subject of a further data set is HepG2 cells. Nature of the data set: Lactate dehydrogenase (LDH) release into cell culture medium. In kind it is cell-based, human. Particulars: under irradiation. The procedure: Next, in order to verify the disruption effect on cell structural integrity of the ^1O2 generation by QTCy7-R under irradiation, JC-1 staining imaging was conducted to monitor the mitochondria membrane potential. […] On the other hand, cell membrane damage caused by the photooxidation of QTCy7-Ac and QTCy7-CHO could be confirmed by a visualized observation. […] Furthermore, the lactate dehydrogenase (LDH) content in cell culture medium was measured to characterize the extent of cell membrane damage.[49]
as §1, §2, §3, §4

Data set [2] concerns 4T1 subcutaneous solid tumor. Nature of the data set: Tumor suppression (PDT) in 4T1-subcutaneous tumor model. In kind it is in vivo, BALB/c mice. As to conditions: for tumor volume increase: no irradiation. As to the method: In view of the observation that the fluorescence intensity of QTCy7-Ac in the tumor site peaked around 2–2.5 h after intravenous injection, this period was chosen as the PDT time window. […] Even so, this approach achieved partial tumor suppression; the tumor volume was 1-fold compared with the initial situation. […] After PDT treatment, the tumor kept shrinking in size (Figure S22a), which achieved a tumor suppression rate of nearly 95% (Figure S22b). Nevertheless, the tumors in PBS groups increased quickly with a 6-fold increment compared with the initial volume whether exposed to irradiation or not, which ruled out the influence of light on tumor growth. In addition, there was virtually no difference between the intratumoral and intravenous injection groups treated with QTCy7-Ac, with tumor volumes increasing by 6-fold and 7-fold, respectively, which excluded the cytotoxicity of the dye alone. […]
of major organs, the mice L) was intravenously injected with QTCy7-Ac (200 μM, 100 μL) 2 hours in advance were killed and the main organs and tumors were removed for […]
Tumor suppression experiments of 4T1-subcutaneous tumor model
To confirm the in vivo PDT efficacy of QTCy7-Ac, all the BALB/c mice were divided into 6 groups: 1) saline injection; 2) saline injection with 660 nm irradiation (100 mW/cm2, 15 min); 3) QTCy7-Ac (200 μM, 100 μL) intratumoral injection; 4) QTCy7-Ac (200 μM, 100 μL) intratumoral injection with 660 nm irradiation (100 mW/cm2, 15 min); 5) QTCy7-Ac (200 μM, 100 μL) intravenous injection; 6) QTCy7-Ac (200 μM, 100 μL) intravenous injection with 660 nm irradiation (100 mW/cm2, 15 min); When the volume of subcutaneous tumors reached about 100 mm 3, mice were injected with PBS or QTCy7-Ac, respectively. After 2 h post-injection, tumor region was irradiated with […] light. In the following half month, the tumor volume of all the mice was measured every two days by a vernier caliper. The volume of tumors was calculated by the following formula: […]
Where “V” represent the tumor volume, “a” represent greatest longitudinal diameter (length) and “b” represent the greatest transverse diameter (width).
The in vivo biocompatibility was evaluated by using measurement mice body weight and H&E slice histological analysis. After the PDT treatment, the mice were euthanized, and main organs including heart, liver, spleen, lung, kidneys and tumors were harvested for histological analysis by means of hematoxylin-eosin (H&E) staining.
Data were expressed as mean ± standard deviation. Student's t test was used to evaluate the statistical significance. P values < 0.05 were regarded statistically

On to `CCOC(=O)C1=C/C(=C\C=C2/Sc3ccccc3N2CC)C(=O)C(/C=C/c2sc3ccccc3[n+]2CC)=C1` [QTCy7-Ac], for which the “1O2 quantum yield relative to MB” value in data set [1] is recorded as 5.8 times. Also, the LDH release rate result in the data set on HepG2 cells is given as “about 70%”. In data set [2] (QTCy7-Ac-mediated PDT), the “H&E staining of tumor tissue” value was “Conspicuous morphological damage”. Besides, the “tumor volume compared with initial” value in data set [2] (intratumoral injection + 660 nm, 100 mW/cm^2, 15 min) was 1 fold. For the same compound, the results for the tumor volume increase in data set [2] (intratumoral injection) and in data set [2] (intravenous injection) were 6 fold and 7 fold, respectively. For the same compound, the tumor suppression rate in data set [2] (intravenous injection + 660 nm, 100 mW/cm^2, 15 min) is listed as around 95%.
